Converted amounts (≈) assume the structure as drawn.

Holding throughout (assay): ≥ marks a high value that may be exact or a test limit, other limits are often not marked, values filed in µg/mL are converted to µM
For test [1], the system named is Streptococcus thermophilus YM-C.
Test [2] concerns Staphylococcus aureus ATCC 29213.
For test [3], the system named is Streptococcus agalactiae.
Test [4] has as its system Salmonella enterica subsp. enterica serovar Pullorum ATCC 7913.
The subject of test [5] is Staphylococcus epidermidis ATCC 12228.
In test [6] the test system is Pseudomonas aeruginosa ATCC 27853.
Test [7] concerns Escherichia coli UB1005.
Test [8] deals with Streptococcus agalactiae CICC 10465.
Test [9] relates to Escherichia coli ATCC 25922.
In test [10] the test system is Escherichia coli 078.
In test [11] the test system is Salmonella enterica subsp. enterica serovar Typhimurium ATCC 14028.
The test system of test [12] is Lacticaseibacillus rhamnosus 7469.
The test system of test [13] is Salmonella enterica subsp. enterica serovar Typhimurium C77-31.
For test [14], the system named is Staphylococcus aureus ATCC 25923.
The subject of test [15] is Mannheimia haemolytica 82-25.
In test [16] the test system is Aeromonas salmonicida.
In test [17] the test system is Pseudomonas aeruginosa K799.
Test [18] relates to Salmonella enterica subsp. enterica serovar Typhimurium ATCC 14028s.
The test system of test [19] is Pseudomonas aeruginosa Z61.
For test [20], the system named is Staphylococcus epidermidis C621.
In test [21] the test system is Vibrio anguillarum.
Test [22] concerns Salmonella enterica serovar typhimurium MS7953s.
Test [23] has as its system Pseudomonas aeruginosa ATCC 47085.
For test [24], the system named is Acinetobacter baumannii ATCC 19606.
The test system of test [25] is Escherichia coli D31 CGSC 5165.
Test [26] concerns Staphylococcus aureus ATCC 35556.

With `CC[C@H](C)[C@H](NC(=O)[C@H](CC(C)C)NC(=O)[C@@H](NC(=O)[C@@H](N)CC(=O)O)[C@@H](C)CC)C(=O)N[C@H](C(=O)N[C@H](C(=O)NCC(=O)NCC(=O)NCC(=O)N[C@@H](CO)C(=O)NCC(=O)N[C@@H](CCCCN)C(=O)N[C@@H](CCC(=O)O)C(=O)N[C@@H](CCCN=C(N)N)C(=O)N[C@@H](CCCCN)C(=O)N[C@@H](CCCCN)C(=O)N[C@@H](CCCN=C(N)N)C(=O)N[C@@H](CCCN=C(N)N)C(=O)N[C@@H](CCCN=C(N)N)C(N)=O)C(C)C)[C@@H](C)CC` [DILIIVGGGSGKERKKRRR], the MIC – broadly, the smallest concentration in the dilution series that meets the test's criterion for growth inhibition – in test [1] was no less than 64 µM; in [2], greater than 64 µM; in test [3], 4 µM (≈ 8.55 µg/mL); in [4], no less than 64 µM; in test [5] it was greater than 64 µM; in [6] it was greater than 64 µM. Further, the MIC was no less than 64 µM in [7]; 4 µM (≈ 8.55 µg/mL) in test [8]; greater than 64 µM in [9]; no less than 64 µM in [10]; greater than 64 µM in test [11]; no less than 64 µM in [12]. The minimum inhibitory concentration (MIC) in [13] is no less than 64 µM; in test [14], greater than 64 µM.
`C[C@H](NC(=O)CN)C(=O)N[C@@H](CC(=O)O)C(=O)N[C@@H](CC(=O)O)C(=O)N[C@@H](CC(=O)O)C(=O)N[C@@H](CC(=O)O)C(=O)N[C@@H](CC(=O)O)C(=O)O` [GADDDDD] had an MIC in test [15] of 30 µM (≈ 21.6 µg/mL).
Turning to `CC(C)C[C@H](NC(=O)[C@H](Cc1ccc(O)cc1)NC(=O)[C@H](Cc1cnc[nH]1)NC(=O)[C@@H](NC(=O)[C@H](CC(C)C)NC(=O)[C@H](C)NC(=O)[C@H](C)NC(=O)[C@H](CCCCN)NC(=O)CNC(=O)[C@@H](NC(=O)[C@H](Cc1cnc[nH]1)NC(=O)[C@H](CCCCN)NC(=O)CNC(=O)[C@@H](NC(=O)[C@H](Cc1cnc[nH]1)NC(=O)[C@H](C)NC(=O)[C@H](C)NC(=O)[C@H](CCCCN)NC(=O)[C@H](CCCCN)NC(=O)[C@H](Cc1ccccc1)NC(=O)[C@H](Cc1ccccc1)NC(=O)[C@H](CO)NC(=O)CNC(=O)[C@H](Cc1c[nH]c2ccccc12)NC(=O)CNC(=O)[C@@H](N)CCCCN)C(C)C)C(C)C)[C@@H](C)O)C(N)=O` [KGWGSFFKKAAHVGKHVGKAALTHYL], the minimal inhibitory concentration (MIC) came out at 0.352 µM (≈ 1 µg/mL) in test [16]; 0.704 µM (≈ 2 µg/mL) in test [17]; 0.704 µM (≈ 2 µg/mL) in test [18]; 0.704 µM (≈ 2 µg/mL) in test [19]; 0.704 µM (≈ 2 µg/mL) in test [20]; 0.704 µM (≈ 2 µg/mL) in [21]. Besides, the MIC in test [22] turned out to be 0.176 µM (≈ 0.5 µg/mL).
On to `CC[C@H](C)[C@H](NC(=O)[C@H](CCCCN)NC(=O)CNC(=O)[C@H](CC(C)C)NC(=O)[C@@H](NC(=O)[C@H](C)NC(=O)[C@H](CCCCN)NC(=O)CNC(=O)[C@H](C)NC(=O)CNC(=O)[C@H](CCCCN)NC(=O)[C@H](CCSC)NC(=O)[C@H](CCCCN)NC(=O)[C@@H](NC(=O)[C@H](Cc1c[nH]c2ccccc12)NC(=O)[C@H](CC(C)C)NC(=O)[C@H](CCCCN)NC(=O)[C@H](CCCCN)NC(=O)[C@H](CC(C)C)NC(=O)[C@@H](N)CC(C)C)[C@@H](C)O)C(C)C)C(=O)N[C@@H](CCCCN)C(=O)NCC(=O)N[C@@H](CC(C)C)C(=O)N[C@@H](CC(C)C)C(=O)O` [LLKKLWTKMKGAGKAVLGKIKGLL], for which the minimal inhibitory concentration (MIC) turned out to be 3.75 µM (≈ 9.73 µg/mL) in [23], 0.94 µM (≈ 2.44 µg/mL) in test [24], 1.88 µM (≈ 4.88 µg/mL) in [25] and 3.75 µM (≈ 9.73 µg/mL) in test [26].

The values are drawn from DBAASP.
